According to patent US12398141B2 (SHANGHAI SYNERGY PHARMACEUTICAL SCIENCES CO., LTD, priority 2019, dated 2025):

Tests used:
[1] = Collagen-induced rheumatoid arthritis model, clinical score; assay type: in vivo, mice; design: key: 0-4 per limb by redness/deformity, max 16 per animal; conditions: clinical score 0-16 per animal, Day 0 (before modeling)
Protocol: (§1) The effects of compounds H07, H12, H14, H25, H30, H39 and H44 on rheumatoid arthritis in […] were determined after long term administration by using Lewis male […] (Beijing Vital River Laboratory Animal Technology Co., Ltd.), aged 5-6 weeks and weighing […] as test animals. The anti-inflammatory pharmacodynamics characteristic of the compounds of the invention was discussed.
(§2) A certain amount of compounds were taken and dissolved in 4% Tween 80/0.5% hydroxy propyl methyl cellulose solution. A volume of intragastric administration of mice was 10 ml/kg.
(§3) Collagen type II was dissolved in 0.1M acetic acid and kept in a 4° C. refrigerator overnight at a collagen concentration of 4 mg/mL. Same volume of incomplete Freund adjuvant (Sigma, USA) was added in collagen before injection in test, which was emulsified high speed homogenizer (30000 rpm) to prepare a collagen emulsion. This procedure was carried out on ice.
(§4) Mice were immunologically injected with the collagen emulsion by two separate times for modeling on days 1 and 7 (the day before modeling was day 0). 0.1 ml of collagen emulsion prepared as above was injected intradermally into a root of tail at a single point, and 0.2 ml was injected intradermally into back at two points. The animals were subjected to clinical score and paw volume test from day 10 to day 14 after modeling. Animals successfully modeled (average clinical score≥3 points/animal) were assigned to each administration group, with each group included 10 animals. They were administrated intragastrically with above compounds or resolvents at a dosage of 10 mg/kg twice/day, and administrated intragastrically with methotrexate (2 mg/kg, Sigma, USA) every three days, until day 27. During the test, the […] were scored twice a week, and the paw volume and body weight were measured twice.
(§5) According to the different degrees of lesions (redness and joint deformation), the scores were ranged from 0 to 4 points, with the highest score of 4 points for each limb and 16 points for each animal. Scoring standards are as follows: 0, no redness; 1, slight redness on mid legs (tarsals) or ankles; 2, slight redness from ankles to mid legs (tarsals); 3, medium redness from ankles to tarsometatarsal joints; 4, severe redness from toes or fingers to ankles or wrist joints.

[2] = system: Lewis male mice; test: as above; assay type: in vivo; design: key: 0-4 per limb by redness/deformity, max 16 per animal; conditions: clinical score 0-16 per animal, compounds 10 mg/kg twice/day, methotrexate 2 mg/kg every three days
Protocol: as §1, §2, §3, §4, §5

[3] = system: Sprague-Dawley (SD) mice; test: Concanavalin-induced paw swelling in mice; assay type: in vivo; conditions: 10 mg/kg intragastric
Protocol: (§6) The inhibiting effects of compounds H13, H14, H09, H11 and compounds of Example 12 on paw swelling in […] were determined after intragastric administration by using Sprague-Dawley (SD) […] (ShanghaiSippr-BK laboratory animal Co. Ltd.), aged 6-7 weeks and weighing 160-180 g as test animals. The anti-inflammatory pharmacodynamics characteristic of the compounds of the invention was discussed.
A certain amount of compounds were taken and dissolved in 4% Tween 80/0.5% hydroxy propyl methyl cellulose solution.
Mice were given compounds H01, H07, H11, H12, H14, H15, H22, H25, H29, H30, H33, H39, and H44 and the positive drug indomethacin (Diamond Reagent Co., Ltd., China) by intragastric administration at the dosages shown in the table below and 0.1 ml 0.03% (W/V) concanavalin was injected subcutaneously into the plantar 0.5 h later. A paw volume was measured with a paw swelling meter before modeling and 1 h, 2 h, 4 h and 6 h after modeling. According to the formula: paw swelling rate=(paw volume after administration−basic paw volume)/basic paw volume×100, the inhibiting effect of the compounds on paw volume was calculated. The basic paw volume was a paw volume before administration.

[4] = system: Blast T cell; test: Cell proliferation test of IL-2 stimulated Blast T cell; assay type: cell-based; conditions: Homo sapiens; IL-2 stimulated Blast T cell proliferation, 72 hours
Protocol: Inhibiting test of the compounds of the invention on proliferation of Blast T cell and TF-1 cell (American type culture collection) was carried out by the following method. The tested compounds […], and […] were dissolved in dimethyl sulfoxide from 0.0006 to 10 μM in quadruplicate dilutions. […] 10 μg/ml […] was added to stimulate and obtain cells with a density of 2×10^6/mL, which were incubated for 3 days. The cells were washed with phosphate buffer for three times and IL-2 (100 u/ml) was added to stimulate for 1 week. Cells were suspended using the culture medium and seeded at 5×10^4 cell/well density into 96-well plates, and incubated for 1 h with the prepared test compound or DMSO control at various concentrations from 0.0006 to 10 μM diluted by 4-fold volume. After incubation with 20 u/ml of IL-2 (50 μl/well without reference well) for 72 hours, Celltiter Glo® reagent (Promega, G7571) was added and mixed for 5 minutes, then incubated for 30 minutes at room temperature. The luminescence value was read on SpectraMax L (Molecular Device). […] The IC50 values of the corresponding compounds were then obtained by fitting by using the XLFit fitting tool in excel.

[5] = system: male ICR mice; test: Carrageenan-induced paw swelling in mice; assay type: in vivo; conditions: 10 mg/kg intragastric
Protocol: as §6, with “H01, H07, H11, H12,” for “H13,”, “H15, H22, H25, H29, H30, H33, H39” for “H09, H11”, “H44” for “compounds of Example 12”, “male ICR” for “Sprague-Dawley (SD)”, “8” for “6-7”, “22-24” for “160-180”
A certain amount of compounds were taken and dissolved in 4% Tween 80/0.5% hydroxy propyl methyl cellulose solution. A volume of intragastric administration in mice was 10 ml/kg.
Mice were given 10 mg/kg compounds H01, H07, H11, H12, H14, H15, H22, H25, H29, H30, H33, H39, and H44 and the positive drug indomethacin (Diamond Reagent Co., Ltd., China) by intragastric administration at the dosages shown in the table below and 20 μL 1% (W/V) carrageenan was injected subcutaneously into the plantar 0.5 h later. A paw volume was measured with a paw swelling meter before and at different time points after modeling (0.5 h, 1 h and 2 h). According to the formula: paw swelling rate=(paw volume after administration−basic paw volume)/basic paw volume×100, the inhibiting effect of the compounds on paw volume was calculated. The basic paw volume was a paw volume before administration.

[6] = system: TF-1 cell; test: TF-1 cell proliferation test; assay type: cell-based; conditions: Homo sapiens, 72 h
Protocol: Inhibiting test of the compounds of the invention on proliferation of Blast T cell and TF-1 cell (American type culture collection) was carried out by the following method. The tested compounds […], and […] were dissolved in dimethyl sulfoxide from 0.0006 to 10 μM in quadruplicate dilutions. […] The luminescence value was read on Microplate Reader (Molecular Device). […] The IC50 values of the corresponding compounds were then obtained by fitting by using the XLFit fitting tool in excel.

[7] = Pharmacokinetic test after intragastric administration; assay type: in vivo; conditions: Sprague-Dawley, mouse, plasma, po, SD mice, 5 mg/kg intragastric
Protocol: Drug concentrations of compounds H01, H07, H11, H12, H14, H15, H22, H25, H29, H30, H33, H39 and H44 intragastrically administrated in plasma by using LC/MS/MS method at various time points were determined by using Sprague-Dawley (SD) […], aged 7-8 weeks and weighing […] as test animals. Pharmacokinetic behavior of the compounds of the invention in […] was studied and its pharmacokinetic characteristics were evaluated.
A certain amount of compounds was taken and dissolved in 50% PEG400/water to prepare a uniform solution.
Mice were administered intragastrically with the above compounds with a dosage of 5 mg/kg. Blood (0.2 ml) was taken from orbits before administration and 0.083 h, 0.25 h, 0.5 h, 1.0 h, 2.0 h, 4.0 h, 6.0 h, 8.0 h, 12.0 h and 24.0 h after administration. The blood was placed in anticoagulant tubes containing dipotassium ethylene glycol diethyl ether diamine tetraacetic acid, centrifugated at 6000 rpm at 4° C. for 10 minutes to separate plasma and saved at −80° C.
50 μL plasma at various time was taken and 150 μL acetonitrile solution containing internal standard tolbutamide (Sigma, USA) was added, mixed and stirred for 5 minutes. After centrifugation for 5 minutes at 12,000 rpm, 100 μL supernatant was taken, mixed with 200 μL water, following by sample injection and analysis.
Liquid chromatogram system was LC-20AD UFLC High Performance Liquid Chromatography system. Mass spectrum system was AB Sciex API4000 triple quadrupole mass spectrometer equipped with Electron Spray Ionization (ESI) (Applied Biosystems, Canada). A software for controlling liquid chromatography-mass spectrometry and quantitative analysis was Anna Rust 1.6 (Applied Biosystems, Canada). Pharmacokinetic parameters were analyzed by WinNonlin (version 5.2, Pharsight, Mountain View, […]) non-compartment model.
The test compound was dissolved in dimethyl sulfoxide to prepare a stock solution with a concentration of 1 mg/mL. The solution was diluted with 50% acetonitrile to obtain a series of standard working solutions with concentrations of 10 μg/mL, 3 μg/mL, 1 μg/mL, 0.3 μg/mL, 0.1 μg/mL, 0.03 μg/mL and 0.01 μg/mL, and a series of standard quality control solutions with concentrations of 8 μg/mL, 0.5 μg/mL, 0.03 μg/mL. 5 μL standard solution was mixed with 45 μL blank plasma substrate uniformly to obtain standard solutions of each concentration of a standard curve (1000 ng/mL, 500 ng/mL, 200 ng/mL, 100 ng/mL, 10 ng/mL, 5 ng/mL, 2 and 1 ng/mL) and quality control solutions (plasma samples: 800 ng/mL, 50 and 3 ng/mL).
Internal standard tolbutamide solid powder was dissolved in dimethyl sulfoxide to prepare a 1 mg/mL stock solution. The stock solution was diluted with 100% acetonitrile to obtain 200 ng/mL solution as a protein precipitation solution.

| SMILES | Score Day 0 [1] | Score Day 13 ([2]; Day 13) | Score Day 14 ([2]; Day 14) | Score Day 18 ([2]; Day 18) | Score Day 21 ([2]; Day 21) | Score Day 25 ([2]; Day 25) | Score Day 27 ([2]; Day 27) | Paw swelling rate_1 h (%) ([3]; 1 h) | Paw swelling rate_2 h (%) ([3]; 2 h) | Paw swelling rate_4 h (%) ([3]; 4 h) | Paw swelling rate_6 h (%) ([3]; 6 h) | IC50 [4] [µM] | Paw swelling_0.5 h (%) ([5]; 0.5 h) | Paw swelling rate_1 h (%) ([5]; 1 h) | Paw swelling rate_2 h (%) ([5]; 2 h) | IC50 [6] [µM] | AUC(0-t) ([7]; read-out: Area under the curve (AUC0-24, ng/ml · h)) [ng·h/mL] | Cmax ([7]; read-out: Plasma concentration (Cmax, ng/ml)) [ng/mL] | half-life ([7]; read-out: half life (T1/2, h) (converted)) [h] |
| --- | --- | --- | --- | --- | --- | --- | --- | --- | --- | --- | --- | --- | --- | --- | --- | --- | --- | --- | --- |
| CN(Cc1cnc2nc(N)nc(N)c2n1)c1ccc(C(=O)N[C@@H](CCC(=O)O)C(=O)O)cc1 [Methotrexate, reference compound] | 0.00 ± 0.00 | 3.10 ± 0.43 | 3.60 ± 0.37 | 4.10 ± 0.47 | 6.45 ± 0.23 | 8.87 ± 0.21 | 9.65 ± 0.13 | – | – | – | – | – | – | – | – | – | – | – | – |
| CC[C@@H]1CN(C(=O)NCC(F)(F)F)CC1Nc1c(C#N)cnc2[nH]ccc12 (stereo partly shown) [Compound H01] | – | – | – | – | – | – | – | 25.70 ± 1.50 | 25.20 ± 2.40 | 31.20 ± 3.10 | 30.20 ± 3.10 | 0.013 | 33.99 ± 1.69 | 40.93 ± 1.64 | 41.56 ± 5.23 | 0.67 | 1720 ± 220 | 578 ± 72 | 2.13 ± 0.27 |
